Test results: patent US10703746B2, “Mutant IDH1 inhibitors useful for treating cancer” (THE UNITED STATES OF AMERICA, AS REPRESENTED BY THE …, priority 2014, dated 2020)

Key:
IDH1 R132C = IDH1 R132C (Homo sapiens, UniProt O75874, R132C); assay: IDH1 R132C enzymatic assay (NADPH depletion coupled to diaphorase/resazurin); format: biochemical
Outline: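 NADPH depletion, read via diaphorase/resazurin coupling, after adding substrate at 0.6 mM α-KG and 0.012 mM NADPH. Beforehand, 0.00032 mg/mL enzyme sat with compound 30 min at room temperature in pH 6.5 potassium phosphate buffer with MgCl2, glycerol and BSA.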

IDH1 R132H = IDH1 R132H (Homo sapiens, UniProt O75874, R132H); assay: IDH1 R132H enzymatic assay (NADPH depletion coupled to diaphorase/resazurin); format: biochemical
Chain of IDH1 R132H (O75874 whole entry R132H): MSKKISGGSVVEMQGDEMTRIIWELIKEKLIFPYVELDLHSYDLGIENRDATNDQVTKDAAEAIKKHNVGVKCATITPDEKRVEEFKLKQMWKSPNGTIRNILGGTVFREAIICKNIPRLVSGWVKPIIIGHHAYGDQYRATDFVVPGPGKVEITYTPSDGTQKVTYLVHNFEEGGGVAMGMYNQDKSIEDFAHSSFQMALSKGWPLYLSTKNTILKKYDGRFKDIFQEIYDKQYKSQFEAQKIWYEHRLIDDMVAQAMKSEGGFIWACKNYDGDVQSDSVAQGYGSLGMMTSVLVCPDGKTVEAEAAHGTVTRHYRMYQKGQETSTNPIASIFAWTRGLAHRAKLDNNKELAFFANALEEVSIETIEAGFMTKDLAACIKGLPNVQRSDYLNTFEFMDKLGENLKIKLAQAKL

[1] = enzymatic inhibition, IDH1 R132C
[2] = enzymatic inhibition, IDH1 R132H
[3] = IDH1 R132C enzymatic inhibition, IC50 class
[4] = IDH1 R132H enzymatic inhibition, IC50 class

Chain of IDH1 R132C (O75874 whole entry R132C): as the sequence (O75874 whole entry R132H) above, with H132C counted along it

SMILES: CN1CCN(Cc2ccc(-n3c4c(cc(-c5nc(-c6ccc(Cl)cc6)cs5)c3=O)C(=O)CC(C)(C)C4)cc2)CC1 [Compound 498]
- IC50 (IDH1 R132C; [1]): 5000 to 20000 nM
- IC50 (IDH1 R132H; [2]): 1000 to 5000 nM

SMILES: CCc1cccc(CC)c1-n1c(CC(C)C)c(C(=O)N2CCNCC2)cc(-c2nc(-c3ccc(Cl)cc3OC)c(C)s2)c1=O [Compound 573]
- IC50 (IDH1 R132C; [1]): 300 to 1000 nM
- IC50 (IDH1 R132H; [2]): 300 to 1000 nM

SMILES: CCOc1ccccc1-n1c(C=C(C)C)c(C(=O)N2CCNCC2)cc(-c2nc(-c3ccc(Cl)cc3)cs2)c1=O [Compound 572]
- IC50 (IDH1 R132C; [1]): < 300 nM
- IC50 (IDH1 R132H; [2]): < 300 nM

SMILES: CCc1cccc(CC)c1-n1c(CC2CCCC2)c(C(=O)N2CCNCC2)cc(-c2nc(-c3ccc(Cl)cc3)cs2)c1=O [Compound 622]
- IC50 (IDH1 R132C; [3]): < 300 nM
- IC50 (IDH1 R132H; [4]): < 300 nM

SMILES: CCc1cccc(CC)c1-n1c(CC(C)C)c(C(=O)N2CCC(CO)CC2)cc(-c2nc(-c3ccc(Cl)cc3)cs2)c1=O [Compound 94]
- IC50 (IDH1 R132C; [3]): < 300 nM
- IC50 (IDH1 R132H; [4]): 1000 to 5000 nM

SMILES: O=C1CCCc2c1cc(-c1nc(-c3ccc(Cl)cc3)cs1)c(=O)n2-c1ccccc1C(F)(F)F [Compound 451]
- IC50 (IDH1 R132C; [1]): 1000 to 5000 nM
- IC50 (IDH1 R132H; [2]): 300 to 1000 nM

SMILES: CCc1cccc(CC)c1-n1c2c(cc(-c3nc(-c4cccc(OC)c4)cs3)c1=O)C(=O)CC(C)(C)C2 [Compound 163]
- IC50 (IDH1 R132C; [3]): > 20000 nM
- IC50 (IDH1 R132H; [4]): > 20000 nM

SMILES: CCc1cccc(CC)c1-n1c2c(cc(-c3nc(-c4ccncc4)cs3)c1=O)C(=O)CC(C)(C)C2 [Compound 132]
- IC50 (IDH1 R132C; [3]): 1000 to 5000 nM
- IC50 (IDH1 R132H; [4]): 1000 to 5000 nM

SMILES: CCc1cccc(CC)c1-n1c(C(C)C)c(C(=O)N2CCNC(C(=O)O)C2)cc(-c2nc(-c3ccc(Cl)cc3)cs2)c1=O (stereo not drawn) [Compound 88]
- IC50 (IDH1 R132C; [3]): < 300 nM
- IC50 (IDH1 R132H; [4]): < 300 nM

SMILES: CCc1cccc(CC)c1-n1c(C=C(C)C)c(C(=O)N2CCCNC(=O)C2)cc(-c2ccn(-c3ccc(Cl)cc3)n2)c1=O [Compound 635]
- IC50 (IDH1 R132C; [3]): < 300 nM
- IC50 (IDH1 R132H; [4]): < 300 nM

SMILES: CCc1cccc(CC)c1-n1c(C(C)C)c(C(=O)N2CCNCC2)cc(-c2nc(-c3ccc(Cl)cc3)cs2)c1=O [Compound 86]
- IC50 (IDH1 R132C; [3]): < 300 nM
- IC50 (IDH1 R132H; [4]): 300 to 1000 nM

SMILES: CCc1cccc(CC)c1-n1c(CC(C)C)c(C(=O)N2CCCC2CO)cc(-c2nc(-c3ccc(Cl)cc3)cs2)c1=O (stereo not drawn) [Compound 243]
- IC50 (IDH1 R132C; [3]): 1000 to 5000 nM
- IC50 (IDH1 R132H; [4]): 1000 to 5000 nM

SMILES: CCc1cccc(OC(C)C)c1-n1c(C=C(C)C)c(C(=O)N2CCNCC2)cc(-c2nc(-c3ccc(Cl)cc3)cs2)c1=O [Compound 508]
- IC50 (IDH1 R132C; [1]): < 300 nM
- IC50 (IDH1 R132H; [2]): < 300 nM

SMILES: CCc1cccc(CC)c1-n1c(C)c(C(=O)NCCN)cc(-c2nc(-c3ccc(Cl)cc3)cs2)c1=O [Compound 303]
- IC50 (IDH1 R132C; [3]): 1000 to 5000 nM
- IC50 (IDH1 R132H; [4]): 300 to 1000 nM

SMILES: COc1ccc(OC)c(-n2c3c(cc(-c4nc(-c5ccccc5)cs4)c2=O)C(=O)CC(C)(C)C3)c1 [Compound 225]
- IC50 (IDH1 R132C; [3]): 1000 to 5000 nM
- IC50 (IDH1 R132H; [4]): 1000 to 5000 nM

SMILES: CCc1cccc(CC)c1-n1c(CC(C)C)c(C(=O)N2CCNCC2)cc(-c2nc(-c3ccc(OC)cc3)c(C)s2)c1=O [Compound 224]
- IC50 (IDH1 R132C; [3]): 300 to 1000 nM
- IC50 (IDH1 R132H; [4]): 300 to 1000 nM

SMILES: CCc1cccc(CC)c1-n1c(CC(C)C)c(CO)cc(-c2nc(-c3ccc(Cl)cc3)cs2)c1=O [Compound 391]
- IC50 (IDH1 R132C; [3]): 300 to 1000 nM
- IC50 (IDH1 R132H; [4]): 300 to 1000 nM

SMILES: COc1ncc(C2=CCNCC2)cc1-n1c2c(cc(-c3nc(-c4ccc(Cl)cc4)cs3)c1=O)C(=O)CC(C)(C)C2 [Compound 351]
- IC50 (IDH1 R132C; [3]): 5000 to 20000 nM
- IC50 (IDH1 R132H; [4]): 5000 to 20000 nM

SMILES: CCc1cccc(CC)c1N1C(=O)C(c2nc(-c3ccc(Cl)cc3)cs2)CC(CN2CCNCC2)=C1CC(C)C (stereo not drawn) [Compound 617]
- IC50 (IDH1 R132C; [3]): 1000 to 5000 nM
- IC50 (IDH1 R132H; [4]): 1000 to 5000 nM

SMILES: CCc1cccc(CC)c1-n1c(CC(C)C)c(C(=O)N2CCNCC2)cc(-c2nc(-c3ccc(CN4CCOCC4)cc3)c(C)s2)c1=O [Compound 238]
- IC50 (IDH1 R132C; [3]): 5000 to 20000 nM
- IC50 (IDH1 R132H; [4]): 5000 to 20000 nM

SMILES: CCc1cccc(CC)c1-n1c(CC(C)C)c(C(=O)N2CCNCC2)cc(-c2ccnc(-c3ccc(Cl)cc3)n2)c1=O [Compound 417]
- IC50 (IDH1 R132C; [1]): 300 to 1000 nM
- IC50 (IDH1 R132H; [2]): 300 to 1000 nM

SMILES: CCc1cccc(CC)c1-n1c(C)c(C(=O)O)cc(-c2nc(-c3ccc(Cl)cc3)cs2)c1=O [Compound 143]
- IC50 (IDH1 R132C; [3]): 5000 to 20000 nM
- IC50 (IDH1 R132H; [4]): 5000 to 20000 nM

SMILES: CCOc1ccc(C)cc1-n1c(C=C(C)C)c(C(=O)N2CCNCC2)cc(-c2nc(-c3ccc(C(F)F)cc3)cs2)c1=O [Compound 386]
- IC50 (IDH1 R132C; [3]): < 300 nM
- IC50 (IDH1 R132H; [4]): < 300 nM

SMILES: CCc1cccc(CC)c1-n1c(C)c(C(=O)N2CCNC(=O)C2)cc(-c2nc(-c3ccc(Cl)cc3)cs2)c1=O [Compound 138]
- IC50 (IDH1 R132C; [3]): 1000 to 5000 nM
- IC50 (IDH1 R132H; [4]): < 300 nM

SMILES: CCc1cccc(CC)c1-n1c(C)c(C(=O)N2CCCC(O)C2)cc(-c2nc(-c3ccc(Cl)cc3)cs2)c1=O (stereo not drawn) [Compound 250]
- IC50 (IDH1 R132C; [3]): 1000 to 5000 nM
- IC50 (IDH1 R132H; [4]): 1000 to 5000 nM

SMILES: CCc1ccc(N(C)C)cc1-n1c(C=C(C)C)c(C(=O)N2CCNCC2)cc(-c2nc(-c3ccc(Cl)cc3)cs2)c1=O [Compound 333]
- IC50 (IDH1 R132C; [3]): < 300 nM
- IC50 (IDH1 R132H; [4]): < 300 nM

SMILES: CCc1ccc(Cl)cc1-n1c(C=C(C)C)c(C(=O)N2CCNCC2)cc(-c2nc(-c3ccc(C(F)F)cc3)cs2)c1=O [Compound 571]
- IC50 (IDH1 R132C; [1]): < 300 nM
- IC50 (IDH1 R132H; [2]): < 300 nM
